In ChEMBL document CHEMBL3137667, “[Drug-induced liver injury; fourteenth updated edition of the bibliographic database of liver injuries and related drugs]” (Gastroenterol Clin Biol, 2004):

Columns and labels:
[1] = Highest frequency of acute liver toxicity observed during clinical trials, expressed as a percentage. [column '% AIGUE' in source]; conditions: human
[2] = human
[3] = Proposed mechanism(s) of liver damage. [column 'MEC' in source]; conditions: human
[4] = human, serum
[5] = Times to onset, minimal and maximal, observed in the indexed observations. [column 'DELAI' in source]; conditions: human
[6] = human; remark: listed apart in the source
[7] = human, serum, 4383 h
[8] = human; remark: listed apart in the source
[9] = human; remark: listed apart in the source
[10] = Highest frequency of moderate liver toxicity observed during clinical trials, expressed as a percentage. [column '% BIOL' in source]; conditions: human
[11] = human; remark: listed apart in the source
[12] = human, serum; remark: listed apart in the source
[13] = Presence of at least one case with successful reintroduction. [column 'REINT' in source]; conditions: human
[14] = human; remark: listed apart in the source
[15] = human; remark: listed apart in the source
[16] = human; remark: listed apart in the source
[17] = human; remark: listed apart in the source
[18] = Comments (NB not yet translated). [column 'COMMENTAIRES' in source]; conditions: human
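Throughout, for Hepatotoxicity (association with vascular disease): count of indexed literature references reporting vascular liver injury in humans, e.g. peliosis hepatitis, hepatic veno-occlusive disease or Budd-Chiari syndrome.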
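Throughout, for Hepatotoxicity (benign tumour): value is a count of indexed literature references citing a benign tumour confirmed by histopathology.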
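Throughout, for Hepatotoxicity (choleostasis): human cholestatic liver injury, shown by histopathology or by peak ALT or AST elevation over alkaline phosphatase ratio below 2, value counts indexed literature reports.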
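Throughout, for Hepatotoxicity (chronic liver disease): chronic liver injury confirmed by histopathology or persistently raised serum aminotransferase activity beyond 6 months, value given as the count of indexed literature references.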
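Throughout, for Hepatotoxicity (cirrhosis): value is a count of indexed literature references reporting cirrhosis confirmed by histopathology.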
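Throughout, for Hepatotoxicity (cytolytic): human cytolytic liver injury, shown by histopathology or by a ratio above 5 of peak ALT or AST elevation to alkaline phosphatase elevation, value counts indexed references.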
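Throughout, for Hepatotoxicity (granulomatous hepatitis): value is a count of indexed literature references reporting granulomatous liver disease confirmed by histopathology.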
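Throughout, for Hepatotoxicity (malignant tumour): malignant tumour confirmed by histopathology, value gives the count of indexed literature references reporting it.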
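Throughout, for Hepatotoxicity (severe hepatitis): human clinical data: severe hepatitis, meaning potentially life-threatening liver failure or clinically observed cases, the value counts how many indexed literature references report it.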
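Throughout, for Hepatotoxicity (steatosis): steatosis confirmed by histopathology, value is the count of indexed references.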

Compound	Hepatotoxicity (acute) [1] [%]	Hepatotoxicity (steatosis) [2]	Hepatotoxicity (mechanism) [3]	Hepatotoxicity (acute) [4]	Hepatotoxicity (time to onset) [5]	Hepatotoxicity (cytolytic) [6]	Hepatotoxicity (chronic liver disease) [7]	Hepatotoxicity (malignant tumour) [8]	Hepatotoxicity (choleostasis) [9]	Hepatotoxicity (moderate) [10] [%]	Hepatotoxicity (benign tumour) [11]	Hepatotoxicity (moderate) [12]	Hepatotoxicity (successful reintroduction) [13]	Hepatotoxicity (severe hepatitis) [14]	Hepatotoxicity (association with vascular disease) [15]	Hepatotoxicity (cirrhosis) [16]	Hepatotoxicity (granulomatous hepatitis) [17]	Hepatotoxicity (comment) [18]	Hepatotoxicity (acute) ([1]; Liver) [%]	Hepatotoxicity (moderate) ([10]; Liver) [%]	further results
CCCNC(=O)NS(=O)(=O)c1ccc(Cl)cc1 [CHLORPROPAMIDE]	0.5	0	Allergic, Dose-dependant	34	2 weeks - 2 years	9	0	0	29	25	0	3	yes	1	0	0	4	RC/TOLBUTAMIDE/TOLAZAMIDE #CBP			
INTERFERON ALFA-2A	35.7	0	Allergic, Dose-dependant	10	1 week - 9 months	7	0	0	2	92	0	50	yes	2	0	1	0	AC_ANTI-ML/-N AGGRAVATION_HAI/HVB I/PARACETAMOL CBP			
CN1CCN2c3ccccc3Cc3ccccc3C2C1 (configuration not stated) [MIANSERIN]	0	0	Dose-dependant, Reactive metabolite	5	1 day - 1.8 years	3	0	0	5	26	0	3	yes	0	0	0	0	RC/NOMIFENSINE			
CCCCOCC(CN1C(=O)NC(=O)C(CC)(c2ccccc2)C1=O)OC(N)=O (configuration not stated) [FEBARBAMATE]	0	1	Allergic	9	8 days - 15 months	9	0	0	1	0	0	2	yes	5	0	0	1	AC_ANTI-N/-LM I/PAROXETINE			
O=C1NC(=O)C(c2ccccc2)(c2ccccc2)N1 [PHENYTOIN]		4		84	1 day - 11 years		6	0			0	29	yes		0	0		#MNI CHOLESTASE_PROLONGEE DUCTOPENIE #CBP	2	90	Hepatotoxicity (mechanism) ([3]; Liver): Allergic, Reactive metabolite; Hepatotoxicity (cytolytic) ([6]; Liver): 53; Hepatotoxicity (choleostasis) ([9]; Liver): 30; Hepatotoxicity (severe hepatitis) ([14]; Liver): 14; Hepatotoxicity (granulomatous hepatitis) ([17]; Liver): 5
CC(=O)N[C@@H](CS)C(=O)O [ACETYLCYSTEINE]	0	1	Dose-dependant	1	4 days	1	0	0	0	0	0	0	yes	0	0	0	0	PERICHOLANGITE			
CO[C@H]1/C=C/O[C@@]2(C)Oc3c(C)c(O)c4c(O)c(cc(O)c4c3C2=O)NC(=O)/C(C)=C\C=C\[C@H](C)[C@H](O)[C@@H](C)[C@@H](O)[C@@H](C)[C@H](OC(C)=O)[C@@H]1C [RIFAMYCIN]	2.3	0	Allergic	3	6 hours - 13 days	2	0	0	2	10	0	5	yes	0	0	0	0	CHOLANGITE I/ISONIAZIDE			
NC(=O)N1c2ccccc2C=Cc2ccccc21 [CARBAMAZEPINE]		2	Allergic, Reactive metabolite	73	1 day - 8 years	38	4	1	41		0	40	yes		0	1	12	AC_ANTI-M/-N/-ML CHOLANGITE DUCTOPENIE #CBP REACTIVATION_HSV6	0.2	23.8	Hepatotoxicity (severe hepatitis) ([14]; Liver): 10
NNc1nncc2ccccc12 [HYDRALAZINE]		0		9	2 days - 3 years		3	0			0	4	yes		0	0		CHOLANGITE AC_ANTI-N	0	0	Hepatotoxicity (mechanism) ([3]; Liver): Allergic, Toxic; Hepatotoxicity (cytolytic) ([6]; Liver): 6; Hepatotoxicity (choleostasis) ([9]; Liver): 3; Hepatotoxicity (severe hepatitis) ([14]; Liver): 2; Hepatotoxicity (granulomatous hepatitis) ([17]; Liver): 6
